Measured values published in patent US9714228B2, “Dihydrofuran derivatives as insecticidal compounds” (Syngenta Participations AG, priority 2010, dated 2017).

How the values were obtained:
Assay type in all cases: in vivo
[1] = system: Spodoptera littoralis; experiment: Spodoptera littoralis, sprayed cotton leaf discs, L1 larvae; conditions: foliar, 72 h, cotton leaf discs sprayed at 200 ppm, 3 days after treatment
Source text: Spodoptera littoralis (Egyptian Cotton Leafworm): Cotton leaf discs were placed on agar in a 24-well microtiter plate and sprayed with test solutions at an application rate of 200 ppm. After drying, the leaf discs were infested with 5 L1 larvae. The samples were checked for mortality, feeding behavior, and growth regulation 3 days after treatment (DAT).

[2] = system: Heliothis virescens; experiment: Heliothis virescens, eggs on treated artificial diet; conditions: 96 h, 200 ppm (concentration in well 18 ppm), 4 days incubation
Method: Heliothis virescens (Tobacco Budworm): Eggs (0-24 h old) were placed in 24-well microtiter plate on artificial diet and treated with test solutions at an application rate of 200 ppm (concentration in well 18 ppm) by pipetting. After an incubation period of 4 days, samples were checked for egg mortality, larval mortality, and growth regulation.

[3] = system: Plutella xylostella; experiment: Plutella xylostella, L2 larvae on treated artificial diet; conditions: 144 h, 200 ppm (concentration in well 18 ppm), 6 days incubation
Method: (§1) Plutella xylostella (Diamond Back Moth): 24-well microtiter plate (MTP) with artificial diet was treated with test solutions at an application rate of 200 ppm (concentration in well 18 ppm) by pipetting. After drying, the MTPs were infested with L2 larvae (7-12 per well). After an incubation period of 6 days, samples were checked for larval mortality and growth regulation.

[4] = system: Diabrotica balteata; experiment: Diabrotica balteata, L2 larvae on treated artificial diet; conditions: 120 h, 200 ppm (concentration in well 18 ppm), 5 days incubation
Method: as §1, with “Diabrotica balteata (Corn Root Worm): A” for “Plutella xylostella (Diamond Back Moth):”, “(6-10” for “(7-12”, “5” for “6”

[5] = system: Myzus persicae; experiment: Myzus persicae (sachet), mixed population, sucrose solution; conditions: 120 h, application rate 12.5 ppm, mortality 5 days after infestation
Source text: Myzus persicae (Sachet) (Green Peach Aphid) Mixed Population Test compounds were applied by pipette into 24 well plates and mixed with Sucrose solution. The plates were closed with a stretched Parafilm. A plastic stencil with 24 holes is placed onto the plate and infested pea seedlings were placed directly on the Parafilm. The infested plate is closed with a gel blotting paper and another plastic stencil and then turned upside down. 5 days after infestation the samples were checked on mortality. Application rate: 12.5 ppm.

[6] = system: Thrips tabaci; experiment: Thrips tabaci, sprayed sunflower leaf discs; conditions: foliar, 168 h, sunflower leaf discs sprayed at 200 ppm, mixed ages, mortality after 7 days
Method: Thrips tabaci (Onion Thrips): Sunflower leaf discs were placed on agar in a 24-well microtiter plate and sprayed with test solutions at an application rate of 200 ppm. After drying, the leaf discs were infested with an […] population of mixed ages. After an incubation period of 7 days, samples were checked for mortality.

[7] = system: Tetranychus urticae; experiment: Tetranychus urticae, sprayed bean leaf discs; conditions: foliar, 192 h, bean leaf discs sprayed at 200 ppm, mixed ages, checked 8 days later
Source text: Tetranychus urticae (Two-Spotted Spider Mite): Bean leaf discs on agar in 24-well microtiter plates were sprayed with test solutions at an application rate of 200 ppm. After drying, the leaf discs are infested with mite populations of mixed ages. 8 days later, discs are checked for egg mortality, larval mortality, and adult mortality.

[8] = system: Spodoptera littoralis; experiment: Spodoptera littoralis (systemic), salad grown on treated agar, eggs; conditions: 120 h, application rate 12.5 ppm, checked 5 days after infestation (mortality, repellent effect, feeding behavior, growth regulation)
Source text: Spodoptera littoralis (Systemic) (Egyptian Cotton Leaf Worm) Test compounds were applied by pipette into 24 well plates and mixed with agar. Salad seeds were placed on the agar and the multi well plate is closed by another plate which contains also agar. After 7 days the roots have absorbed the compound and the salad has grown into the lid plate. The salad leafs were now cut off into the lid plate. Spodoptera eggs were pipette through a plastic stencil on a humid gel blotting paper and the plate closed with it. The samples are checked for mortality, repellent effect, feeding behavior, and growth regulation 5 days after infestation. Application rate: 12.5 ppm

CCC(C)NC(=O)c1ccc(C2=COC(c3cc(Cl)cc(Cl)c3)(C(F)(F)F)C2)cc1C (centres unmarked) [Compound D7]
≥ 80%: pest or weed control at 200 ppm [1] | pest or weed control at 200 ppm [2] | pest or weed control at 200 ppm [3] | pest or weed control at 200 ppm [4] | pest or weed control at 12.5 ppm [5]

N#Cc1cc(C2=CC(c3cc(Cl)cc(Cl)c3)(C(F)(F)F)OC2)ccc1-n1cc(Br)cn1 (centres unmarked) [Compound G2, 2-(4-Bromo-pyrazol-1-yl)-5-[5-(3,5-dichloro-phenyl)-5-trifluoromethyl-2,5-dihydro-furan-3-yl]-benzonitrile]
≥ 80%: pest or weed control at 200 ppm [1]

Cc1cc(C2=COC(c3cc(Cl)cc(Cl)c3)(C(F)(F)F)C2)ccc1C(=O)NC1CCC1 (centres unmarked) [Compound D23]
≥ 80%: pest or weed control at 200 ppm [1] | pest or weed control at 200 ppm [2] | pest or weed control at 200 ppm [3] | pest or weed control at 200 ppm [4] | pest or weed control at 12.5 ppm [5] | pest or weed control at 200 ppm [6] | pest or weed control at 200 ppm [7]

Cc1cc(C2=COC(c3cc(Cl)cc(Cl)c3)(C(F)(F)F)C2)ccc1C(=O)NCC1CCCO1 (centres unmarked) [Compound D8]
≥ 80%: pest or weed control at 12.5 ppm [8] | pest or weed control at 200 ppm [1] | pest or weed control at 200 ppm [2] | pest or weed control at 200 ppm [3] | pest or weed control at 200 ppm [4] | pest or weed control at 12.5 ppm [5] | pest or weed control at 200 ppm [6] | pest or weed control at 200 ppm [7]

Cc1cc(C2=COC(c3cc(Cl)cc(Cl)c3)(C(F)(F)F)C2)ccc1C(=O)NC(C)c1ccccc1 (centres unmarked) [Compound D11]
≥ 80%: pest or weed control at 200 ppm [1] | pest or weed control at 200 ppm [2] | pest or weed control at 200 ppm [3] | pest or weed control at 200 ppm [4] | pest or weed control at 12.5 ppm [5] | pest or weed control at 200 ppm [6] | pest or weed control at 200 ppm [7]

Cc1cc(C2=CC(c3cc(Cl)cc(Cl)c3)(C(F)(F)F)OC2)ccc1C(=O)NC1CC(=NOCC(F)(F)F)C1 (centres unmarked) [Compound A79]
≥ 80%: pest or weed control at 200 ppm [1] | pest or weed control at 200 ppm [2] | pest or weed control at 200 ppm [3] | pest or weed control at 200 ppm [4] | pest or weed control at 200 ppm [6] | pest or weed control at 200 ppm [7]

CCCCNC(=O)c1ccc(C2=COC(c3cc(Cl)cc(Cl)c3)(C(F)(F)F)C2)cc1C (centres unmarked) [Compound D3]
≥ 80%: pest or weed control at 200 ppm [1] | pest or weed control at 200 ppm [2] | pest or weed control at 200 ppm [3] | pest or weed control at 200 ppm [4] | pest or weed control at 12.5 ppm [5] | pest or weed control at 200 ppm [6] | pest or weed control at 200 ppm [7]

Cc1cc(C2=COC(c3cc(Cl)cc(Cl)c3)(C(F)(F)F)C2)ccc1C(=O)NCC(F)(F)F (centres unmarked) [Compound D1]
≥ 80%: pest or weed control at 12.5 ppm [8] | pest or weed control at 200 ppm [1] | pest or weed control at 200 ppm [2] | pest or weed control at 200 ppm [3] | pest or weed control at 200 ppm [4] | pest or weed control at 200 ppm [6]

Cc1cc(C2=COC(c3cc(Cl)cc(Cl)c3)(C(F)(F)F)C2)ccc1C(=O)NCc1ccccn1 (centres unmarked) [Compound D15]
≥ 80%: pest or weed control at 12.5 ppm [8] | pest or weed control at 200 ppm [1] | pest or weed control at 200 ppm [2] | pest or weed control at 200 ppm [3] | pest or weed control at 200 ppm [4] | pest or weed control at 12.5 ppm [5] | pest or weed control at 200 ppm [6] | pest or weed control at 200 ppm [7]

COc1ccc(CNC(=O)c2ccc(C3=COC(c4cc(Cl)cc(Cl)c4)(C(F)(F)F)C3)cc2C)cc1 (centres unmarked) [Compound D12]
≥ 80%: pest or weed control at 200 ppm [1] | pest or weed control at 200 ppm [2] | pest or weed control at 200 ppm [3] | pest or weed control at 200 ppm [4] | pest or weed control at 12.5 ppm [5] | pest or weed control at 200 ppm [6] | pest or weed control at 200 ppm [7]

Cc1cc(C2=CC(c3cc(Cl)cc(Cl)c3)(C(F)(F)F)OC2)ccc1C(=O)NCc1ccc2c(c1)OCCO2 (centres unmarked) [Compound A44]
≥ 80%: pest or weed control at 200 ppm [1] | pest or weed control at 200 ppm [2] | pest or weed control at 200 ppm [3] | pest or weed control at 200 ppm [4]

Cc1cc(C2=COC(c3cc(Cl)cc(Cl)c3)(C(F)(F)F)C2)ccc1C(=O)NC1CC2CCC1C2 (centres unmarked) [Compound D22]
≥ 80%: pest or weed control at 200 ppm [3] | pest or weed control at 200 ppm [4] | pest or weed control at 200 ppm [6]

CSCC(C)(C)NC(=O)c1ccc(C2=COC(c3cc(Cl)cc(Cl)c3)(C(F)(F)F)C2)cc1C (centres unmarked) [Compound D19]
≥ 80%: pest or weed control at 200 ppm [1] | pest or weed control at 200 ppm [2] | pest or weed control at 200 ppm [3] | pest or weed control at 200 ppm [4] | pest or weed control at 12.5 ppm [5] | pest or weed control at 200 ppm [7]

Cc1cc(C2=COC(c3cc(Cl)cc(Cl)c3)(C(F)(F)F)C2)ccc1C(=O)NCc1ccccc1F (centres unmarked) [Compound D10]
≥ 80%: pest or weed control at 200 ppm [1] | pest or weed control at 200 ppm [2] | pest or weed control at 200 ppm [3] | pest or weed control at 200 ppm [4] | pest or weed control at 12.5 ppm [5] | pest or weed control at 200 ppm [6] | pest or weed control at 200 ppm [7]

Cc1cc(C2=COC(c3cc(Cl)cc(Cl)c3)(C(F)(F)F)C2)ccc1C(=O)NCc1ccccc1 (centres unmarked) [Compound D9]
≥ 80%: pest or weed control at 200 ppm [1] | pest or weed control at 200 ppm [2] | pest or weed control at 200 ppm [3] | pest or weed control at 200 ppm [4] | pest or weed control at 12.5 ppm [5] | pest or weed control at 200 ppm [6] | pest or weed control at 200 ppm [7]

Cc1cc(C2=COC(c3cc(Cl)cc(Cl)c3)(C(F)(F)F)C2)ccc1C(=O)Nc1cccc(F)c1 (centres unmarked) [Compound D14]
≥ 80%: pest or weed control at 200 ppm [1] | pest or weed control at 200 ppm [2] | pest or weed control at 200 ppm [3] | pest or weed control at 200 ppm [4] | pest or weed control at 12.5 ppm [5] | pest or weed control at 200 ppm [6] | pest or weed control at 200 ppm [7]

Cc1cc(NC(=O)c2ccc(C3=COC(c4cc(Cl)cc(Cl)c4)(C(F)(F)F)C3)cc2C)n(C)n1 (centres unmarked) [Compound D16]
≥ 80%: pest or weed control at 200 ppm [1] | pest or weed control at 200 ppm [2] | pest or weed control at 200 ppm [3] | pest or weed control at 200 ppm [4] | pest or weed control at 12.5 ppm [5] | pest or weed control at 200 ppm [6]

Cc1cc(C2=COC(c3cc(Cl)cc(Cl)c3)(C(F)(F)F)C2)ccc1C(=O)NCc1ccc(Cl)nc1 (centres unmarked) [Compound D13]
≥ 80%: pest or weed control at 200 ppm [1] | pest or weed control at 200 ppm [2] | pest or weed control at 200 ppm [3] | pest or weed control at 200 ppm [4] | pest or weed control at 12.5 ppm [5] | pest or weed control at 200 ppm [7]

Cc1cc(C2=COC(c3cc(Cl)cc(Cl)c3)(C(F)(F)F)C2)ccc1C(=O)NCCC(F)(F)F (centres unmarked) [Compound D6]
≥ 80%: pest or weed control at 200 ppm [1] | pest or weed control at 200 ppm [2] | pest or weed control at 200 ppm [3] | pest or weed control at 200 ppm [4] | pest or weed control at 12.5 ppm [5] | pest or weed control at 200 ppm [6] | pest or weed control at 200 ppm [7]

Cc1csc(NC(=O)c2ccc(C3=COC(c4cc(Cl)cc(Cl)c4)(C(F)(F)F)C3)cc2C)n1 (centres unmarked) [Compound D17]
≥ 80%: pest or weed control at 200 ppm [1] | pest or weed control at 200 ppm [2] | pest or weed control at 200 ppm [3] | pest or weed control at 200 ppm [4] | pest or weed control at 12.5 ppm [5]

COCC(C)NC(=O)c1ccc(C2=COC(c3cc(Cl)cc(Cl)c3)(C(F)(F)F)C2)cc1C (centres unmarked) [Compound D4]
≥ 80%: pest or weed control at 200 ppm [1] | pest or weed control at 200 ppm [2] | pest or weed control at 200 ppm [3] | pest or weed control at 200 ppm [4] | pest or weed control at 12.5 ppm [5] | pest or weed control at 200 ppm [6] | pest or weed control at 200 ppm [7]

Cc1cc(C2=COC(c3cc(Cl)cc(Cl)c3)(C(F)(F)F)C2)ccc1C(=O)NC1(C)CSC1 (centres unmarked) [Compound D18]
≥ 80%: pest or weed control at 200 ppm [1] | pest or weed control at 200 ppm [2] | pest or weed control at 200 ppm [3] | pest or weed control at 200 ppm [4] | pest or weed control at 12.5 ppm [5] | pest or weed control at 200 ppm [6] | pest or weed control at 200 ppm [7]
